{"source": "patent US20100298234A1", "about": "“Cancer therapeutic agents comprising a ligand for the neuromedin u receptor 2 (fm4) molecule as an active ingredient” (priority 2006, published 2010)", "key": {"PANC-1": {"tested_on": "PANC-1", "assay": "Proliferation of pancreatic cancer cell line PANC-1", "format": "cell-based, human", "details": "PANC-1, NmU 0.096 μM to 60 μM, 72 hours, FIG. 4B", "procedure": "(§1) On the following day, NmU was added to each well at 0.096 μM to 60 μM. Seventy-two hours later, the number of cells was determined."}, "FM3": {"tested_on": "FM3", "details": "CHO, HEK-293 and COS-7 cells forced to express FM3; cited from earlier work"}, "FM4-CHO cells [1]": {"tested_on": "FM4-CHO cells", "assay": "Cell morphology of FM4-CHO cells under a microscope after NmU stimulation", "format": "cell-based, Chinese hamster", "details": "FM4-CHO stimulated with NmU, in approximately 12 hours, FIG. 8", "excerpt": "The cell morphology of FM4-CHO cells which were forced to express FM4 was observed under a microscope.\nThis led to the speculation that NmU is involved in signal transduction that regulates cell adhesion and cell movement."}, "CHO cells": {"tested_on": "CHO cells", "assay": "Wound healing assay (cell movement), parent CHO cells", "format": "cell-based, Chinese hamster", "details": "NmU 5 μM, serum-free medium, 24 hours, FIG. 9", "procedure": "(§2) Next, the effect of NmU on cell movement ability was analyzed by wound healing assay. Parent cell line CHO cells and FM4-CHO cells were grown to confluency in plates, and wounded with a pipette tip to make a fixed clearance between the cells. After washing the cells twice with PBS, the cells were cultured in a serum-free culture medium in the presence or absence of NmU (5 μM). Twenty-four hours later, cells that moved into the clearance between the cells were observed and photographed under a microscope."}, "FM4 [2]": {"biological_target": "T1, FM4 (Homo sapiens, UniProt Q9GZQ4, A395T/C204F)", "T1 construct": "using Pyrobest Taq polymerase (Takara) to clone the full-length FM4 gene; expressed in transfected cells", "T1 sequence (Q9GZQ4 whole entry C204F/A395T)": "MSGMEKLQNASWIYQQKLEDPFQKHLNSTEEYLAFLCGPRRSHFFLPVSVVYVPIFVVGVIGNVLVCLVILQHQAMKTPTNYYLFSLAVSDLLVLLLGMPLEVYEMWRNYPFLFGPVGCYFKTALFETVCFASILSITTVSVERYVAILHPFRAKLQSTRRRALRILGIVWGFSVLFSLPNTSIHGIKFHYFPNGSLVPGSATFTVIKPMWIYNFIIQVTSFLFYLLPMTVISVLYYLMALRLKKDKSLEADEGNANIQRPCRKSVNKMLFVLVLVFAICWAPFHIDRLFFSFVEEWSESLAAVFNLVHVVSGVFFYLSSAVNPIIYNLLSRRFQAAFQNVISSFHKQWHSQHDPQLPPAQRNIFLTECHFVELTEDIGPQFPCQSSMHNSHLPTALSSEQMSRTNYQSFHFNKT", "assay": "Intracellular Ca2+ concentration in FM4-expressing PANC1 cells (FM4-PANC1)", "format": "cell-based", "details": "FM4-PANC1, NmU 1 μM, FIG. 6", "procedure": "(§3) The cells were detached using trypsin, plated onto a 96-well plate (black plate for fluorescence measurement) at 2×10^4 cells/well, and after culturing overnight, they were used for intracellular calcium measurements. Measurement of the intracellular calcium concentration was performed as follows.\nAfter removing the medium, an Fluo 4 AM solution [2% FCS, 3 μM Fluo 4 AM (Molecular PROBES) in assay buffer (2 mM HEPES, 1.5 mM probenecid in HBSS)] was added at 50 μL/well. After incubation in the dark at 37° C. for 30 minutes, the cells were washed three times in the assay buffer. […]\nIn order to confirm that the NmU signaling is transmitted into the cell in the obtained FM4-expressing PANC1 cells (FM4-PANC1), whether the addition of NmU increased the intracellular Ca^2+ concentration was analyzed. […] This confirmed that in the established FM4-PANC1 cells, NmU stimulation causes the FM4-mediated signaling to be transmitted into the cell."}, "FM4 [3]": {"biological_target": "T1, FM4", "assay": "Intracellular Ca2+ concentration measurement (Fluo 4 AM) in FM4-expressing CHO cells", "format": "cell-based", "details": "FM4-CHO cell line, 2.5 μM NmU, FIG. 3", "procedure": "15 μg of linearized FM4 expression vector (pMCN-FM4) obtained by digestion with PvuI was introduced into CHO cells by electroporation (Gene Pulser; BioRad) at 1.5 kV, 25 μFD. The cells were cultured in a medium containing 500 μg/mL of G418, and G418-resistant cells were picked. NmU was added to these cells, and cell lines that reacted to NmU were selected using the increase in intracellular Ca^2+ concentration as an index.\nas §3\nAfter removing the medium, an Fluo 4 AM solution [2% FCS, 3 μM Fluo 4 AM (Molecular PROBES) in assay buffer (2 mM HEPES, 1.5 mM probenecid in HBSS)] was added at 50 μL/well. After incubation in the dark at 37° C. for 30 minutes, the cells were washed three times in the assay buffer. Then, an assay buffer that contains 2.5 μM of NmU (Funakoshi) was added, and the intracellular Ca^2+-dependent fluorescence trace at 490-nm excitation was monitored on a plate reader for fluorimetric analysis (Fusion; Perkin Elmer)."}, "FM4-PANC1 cells": {"tested_on": "FM4-PANC1 cells", "assay": "Soft agar colony formation assay, FM4-PANC1 cells", "format": "cell-based, human", "details": "FM4-PANC1, NmU 1 μM, one month, FIG. 7", "procedure": "(§4) To analyze the effect of NmU on the ability of this cell to form colonies, soft agar colony formation assay was performed. Soft agar colony formation assay was performed as follows.\n(§5) Base agar (0.5% agar, 1×MEM, and 10% FCS) was added to each well of a 6-well plate at 1.5 mL/well, and then 1.5 mL/well (0.5×10^4 cells/well) of PANC1 cells or FM4-PANC1 cells in the presence or absence of NmU (1 μM) in top agar (0.35% agar, 1×MEM, and 10% FCS) was added at to each of the wells. After culturing for one month, the number of colony forming cells in the soft agar was counted under a microscope."}, "[4]": {"details": "administration into the cerebral ventricle; cited from earlier work"}, "Capan-1": {"tested_on": "Capan-1", "assay": "Proliferation of pancreatic cancer cell line Capan-1", "format": "cell-based, human", "details": "Capan-1 (high FM4 gene expression), NmU 0.096 μM to 60 μM, 72 hours, FIG. 4B", "procedure": "as §1"}, "FM4-CHO cells [5]": {"tested_on": "FM4-CHO cells", "assay": "Proliferation-suppressing effect, WST-8 assay, FM4-CHO", "format": "cell-based, Chinese hamster", "details": "NmU 0.096 μM to 60 μM, 48 hours, FIG. 4A", "procedure": "FM4-CHO cells were plated onto a 96-well plate at 2×10^3 cells/well. On the following day, NmU was added to each well at various concentrations (0.096 μM to 60 μM) and the cells were cultured. 48 Hours later, the number of viable cells were analyzed by WST-8 assay (Cell counting kit-8, Dojindo Laboratories)."}, "PANC1 cells": {"tested_on": "PANC1 cells", "assay": "Soft agar colony formation assay, parent PANC1 cells", "format": "cell-based, human", "details": "parent cell line PANC1 that does not express FM4, NmU 1 μM, one month, FIG. 7", "procedure": "as §4, §5"}, "FM4-CHO cells [6]": {"tested_on": "FM4-CHO cells", "assay": "Wound healing assay (cell movement), FM4-CHO cells", "format": "cell-based, Chinese hamster", "details": "NmU 5 μM, serum-free medium, 24 hours, FIG. 9", "procedure": "as §2"}, "FM4 [7]": {"biological_target": "T2, FM4 (Homo sapiens, UniProt Q9GZQ4)", "T2 construct": "host or cells: CHO, HEK-293 and COS-7 cells with forced expression", "T2 sequence (Q9GZQ4 whole entry)": "as the sequence (Q9GZQ4 whole entry C204F/A395T) above, with F204C, T395A counted along it", "details": "CHO, HEK-293 and COS-7 cells forced to express FM4; cited from earlier work"}}, "data": [{"substance": "NmU: biologically active peptide, endogenous ligand for FM3 and FM4; polypeptide of SEQ ID NO: 14; NmU (Funakoshi) used in the tests (FRVDEEFQSPFASQSRGYFLFRPRN; listed as Homo sapiens)", "values": [{"measurement": "proliferation (number of cells)", "setting": "PANC-1", "result": "did not act at all on the proliferation"}, {"measurement": "intracellular calcium ion concentration", "setting": "FM3", "result": "induced increase of intracellular calcium ion concentration at the nanomolar level"}, {"measurement": "cell morphology", "setting": "FM4-CHO cells [1]", "result": "significant morphological alterations of the cells such as disappearance of cell protrusions"}, {"measurement": "cell movement", "setting": "CHO cells", "result": "did not have any effect"}, {"measurement": "intracellular Ca2+ concentration", "setting": "FM4 [2]", "result": "increase of the intracellular Ca^2+ concentration"}, {"measurement": "intracellular Ca2+ concentration", "setting": "FM4 [3]", "result": "quickly increased"}, {"measurement": "colony forming ability in soft agar", "setting": "FM4-PANC1 cells", "result": "colony formation-suppressing effect by NmU was confirmed"}, {"measurement": "food/feed intake", "setting": "[4]", "result": "significant reduction in overnight food intake and starvation-induced feeding"}, {"measurement": "proliferation (number of cells)", "setting": "Capan-1", "result": "proliferation-suppressing effect of NmU was observed"}, {"measurement": "proliferation (number of viable cells, WST-8)", "setting": "FM4-CHO cells [5]", "result": "suppressed proliferation of FM4-CHO at low concentration"}, {"measurement": "colony forming ability in soft agar", "setting": "PANC1 cells", "result": "did not have any effect"}, {"measurement": "cell movement", "setting": "FM4-CHO cells [6]", "result": "completely inhibited"}, {"measurement": "intracellular calcium ion concentration", "setting": "FM4 [7]", "result": "induced increase of intracellular calcium ion concentration at the nanomolar level"}]}]}
